Results reported in US20210355106A1, “NEW AMINO-PYRIMIDONYL-PIPERIDINYL DERIVATIVES, A PROCESS FOR THEIR PREPARATION AND PHARMACEUTICAL COMPOSITIONS CONTAINING THEM” (LES LABORATOIRES SERVIER, priority 2018, published 2021).
Values joined by “and” are separate entries in the source; they are usually repeats but may differ in a detail not shown here. Equal entries are not always repeated.

Key:
[1] = tested on: Z138 mantle cell lymphoma tumour cell lines; assay: In vitro cytotoxicity, MTT assay; assay type: cell-based; conditions: Homo sapiens, Z-138; Z138 cells, exposed to the test compounds for 96 hours
Procedure: The cytotoxicity studies were evaluated by MTT [3-(4,5-dimethylthiaxol-2-yl)-2,5-diphenyltetrazolium bromide|assay and carried out on Z138 mantle cell lymphoma tumour cell lines. The cells are distributed onto microplates and exposed to the test compounds for 96 hours. MTT is then added for 4 hours and converted by NAD(P)H-dependent cellular oxidoreductase enzymes in forma/an, which has a purple color. The viable cell number is proportional to the production of formazan salts and cell viability can be quantified by the absorbance of the solution at 540 nm with a spectrophotometer (Carmichael et al., Cancer Res. 1987, 47, 936-942).

USP7 = biological target: T1, USP7 (Homo sapiens, UniProt Q93009, C315A); assay: Inhibition of USP7 by Fluorescence Intensity (FLINT) readings, Ubiquitin-Rhodamine-110 substrate; assay type: biochemical; conditions: 0.25 nM His-His-USP7 (aa208-560), 60 minutes at 30° C. preincubation; Ki determined from IC50 according to Cer et al.
T1 construct: 0.25 nM His-His-USP7 (aa208-560, |C315A|) was incubated with compound; His-His (N)
How it was run: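 Kinetic rate of Rhodamine-110 release from ubiquitin substrate (50 nM or 4 μM), read every 3 min for 21 min, after 60 min, 30 °C preincubation of 0.25 nM USP7 catalytic domain C315A with compound. Bicine pH 8.0 buffer, 10% DMSO; 11-point IC50 vs DMSO and no-enzyme controls, converted to Ki.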

T1 sequence (Q93009 208-560 C315A): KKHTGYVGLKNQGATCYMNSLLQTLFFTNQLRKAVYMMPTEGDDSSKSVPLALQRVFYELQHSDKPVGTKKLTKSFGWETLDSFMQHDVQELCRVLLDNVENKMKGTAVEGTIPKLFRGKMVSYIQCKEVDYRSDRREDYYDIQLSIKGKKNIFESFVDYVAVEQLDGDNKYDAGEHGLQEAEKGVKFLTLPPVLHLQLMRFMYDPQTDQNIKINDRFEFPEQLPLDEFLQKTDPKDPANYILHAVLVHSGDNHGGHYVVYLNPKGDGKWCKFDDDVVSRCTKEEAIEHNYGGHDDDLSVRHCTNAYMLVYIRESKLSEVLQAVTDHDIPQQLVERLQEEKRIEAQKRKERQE

Row | Structure (SMILES) | IC50 [1] [nM] | Ki (USP7)
1 | Cc1ccc(-c2nc(C)c(C(=O)N3CC[C@@H](C(=O)N4CCC(O)(Cn5cnc(Oc6ccc(F)cc6)c(N)c5=O)CC4)[C@H](c4ccccc4)C3)s2)cn1 [Example 47, 5-amino-6-(4-fluorophenoxy)-3-[(4-hydroxy-1-{(3R,4R)-1-[4-methyl-2-(6-methylpyridin-3-yl)-1,3-thiazole-5-carbonyl]-3-phenylpiperidine-4-carbonyl}piperidin-4-yl)methyl]pyrimidin-4(3H)-one] | 0.92 | 2.2 nM
2 | Nc1c(Oc2ccc(F)cc2)ncn(C[C@@]2(O)CCN(C(=O)[C@@H]3CCN(Cc4ccncn4)C[C@H]3c3ccccc3)CC2(F)F)c1=O [Example 212, 5-amino-3-[[(4S)-3,3-difluoro-4-hydroxy-1-[(3R,4R)-3-phenyl-1-(pyrimidin-4-ylmethyl)piperidine-4-carbonyl]-4-piperidyl]methyl]-6-(4-fluorophenoxy)pyrimidin-4-one] | 21.4 | 34.1 nM
3 | COc1cc(Oc2ncn(C[C@@]3(O)CCN(C(=O)[C@@H]4CCN(Cc5ccnc(C)n5)C[C@H]4c4ccccc4)CC3(F)F)c(=O)c2N)ccc1F [Example 149] | 24.1 | 14 nM
4 | Cc1ccc(-c2cncc(C(=O)N3CC[C@@H](C(=O)N4CCC(O)(Cn5cnc(Oc6ccc(F)cc6)c(N)c5=O)CC4)[C@H](c4ccccc4)C3)c2)cn1 [Example 34, 5-amino-6-(4-fluorophenoxy)-3-({4-hydroxy-1-[(3R,4R)-1-(6′-methyl[3,3′-bipyridine]-5-carbonyl)-3-phenylpiperidine-4-carbonyl]piperidin-4-yl}methyl)pyrimidin-4(3H)-one] | 11 | 3.58 nM
5 | Cc1cncc(C(=O)N2CC[C@@H](C(=O)N3CC[C@](O)(Cn4cnc(Oc5ccc(F)cc5)c(N)c4=O)C(F)(F)C3)[C@H](c3ccccc3)C2)c1 [Example 157, 5-amino-3-[[(4S)-3,3-difluoro-4-hydroxy-1-[(3R,4R)-1-(5-methylpyridine-3-carbonyl)-3-phenyl-piperidine-4-carbonyl]-4-piperidyl]methyl]-6-(4-fluorophenoxy)pyrimidin-4-one] | 5.18 | 4.83 nM
6 | Nc1c(Oc2ccc(F)cc2)ncn(CC2(O)CCN(C(=O)[C@@H]3CCN(C(=O)c4sc(Cl)c(Br)c4F)C[C@H]3c3ccccc3)CC2)c1=O [Example 106, 5-amino-3-[[I-[(3R,4R)-1-(4-bromo-5-chloro-3-fluoro-thiophene-2-carbonyl)-3-phenyl-piperidine-4-carbonyl]-4-hydroxy-4-piperidyl]methyl]-6-(4-fluorophenoxy)pyrimidin-4-one] | 18.6 | 15 nM
7 | Cc1ccc(-c2c(Cl)sc(C(=O)N3CC[C@@H](C(=O)N4CCC(O)(Cn5cnc(Oc6ccc(F)cc6)c(N)c5=O)CC4)[C@H](c4ccccc4)C3)c2F)cn1 [Example 107] | 7.64 | 3.3 nM
8 | Cc1nc(Br)sc1C(=O)N1CC[C@@H](C(=O)N2CCC(O)(Cn3cnc(Oc4cccc(C(F)(F)F)c4)c(N)c3=O)CC2)[C@H](c2ccccc2)C1 [Example 100, 5-amino-3-[[1-[(3R,4R)-1-(2-bromo-4-methyl-thiazole-5-carbonyl)-3-phenyl-piperidine-4-carbonyl]-4-hydroxy-4-piperidyl]methyl]-6-[3-(trifluoromethyl)phenoxy]pyrimidin-4-one] | 47.6 | 24 nM
9 | Nc1c(Oc2ccc(F)cc2)ncn(CC2(O)CCN(C(=O)[C@@H]3CCN(C(=O)c4cncc(-c5ccccc5)c4)C[C@H]3c3ccccc3)CC2)c1=O [Example 35, 5-amino-6-(4-fluorophenoxy)-3-({4-hydroxy-1-[(3R,4R)-3-phenyl-1-(5-phenylpyridine-3-carbonyl)piperidine-4-carbonyl]piperidin-4-yl}methyl)pyrimidin-4(3H)-one] | 5 | 11.3 nM
10 | Cc1nc(-c2ccccc2)sc1C(=O)N1CC[C@@H](C(=O)N2CCC(O)(Cn3cnc(Oc4ccc(F)cc4)c(N)c3=O)CC2)[C@H](c2ccccc2)C1 [Example 66, 5-amino-6-(4-fluorophenoxy)-3-({4-hydroxy-1-[(3R,4R)-1-(4-methyl-2-phenyl-1,3-thiazole-5-carbonyl)-3-phenylpiperidine-4-carbonyl]piperidin-4-yl}methyl)pyrimidin-4(3H)-one] | 4.5 | 6.5 nM
11 | Cc1nc(N2CCCC2)sc1C(=O)N1CC[C@@H](C(=O)N2CCC(O)(Cn3cnc(Oc4ccc(F)cc4)c(N)c3=O)CC2)[C@H](c2ccccc2)C1 [Example 65, 5-amino-6-(4-fluorophenoxy)-3-[(4-hydroxy-1-{(3R,4R)-1-[4-methyl-2-(pyrrolidin-1-yl)-1,3-thiazole-5-carbonyl]-3-phenylpiperidine-4-carbonyl]piperidin-4-yl)methyl]pyrimidin-4(3H)-one] | 7.66 | 4.2 nM
12 | Nc1c(Oc2ccc(F)cc2)ncn(CC2(O)CCN(C(=O)[C@@H]3CCN(C(=O)C(F)(F)c4ccccc4)C[C@H]3c3ccccc3)CC2)c1=O [Example 75, 5-amino-3-[[1-[(3R,4R)-1-(2,2-difluoro-2-phenyl-acetyl)-3-phenyl-piperidine-4-carbonyl]-4-hydroxy-4-piperidyl]methyl]-6-(4-fluorophenoxy)pyrimidin-4-one] | 43 | 39 nM
13 | Cc1ccc(-c2nc(C)c(C(=O)N3CC[C@@H](C(=O)N4CC[C@](O)(Cn5cnc(Oc6ccc(CN)cc6)c(N)c5=O)C(F)(F)C4)[C@H](c4ccccc4)C3)s2)cn1 [Example 210] | 1.85 | 0.215 nM
14 | Cc1ccc(-c2cc(CN3CC[C@@H](C(=O)N4CC[C@](O)(Cn5cnc(Oc6ccc(F)cc6)c(N)c5=O)C(F)(F)C4)[C@H](c4ccccc4)C3)ncn2)cn1 [Example 164, 5-amino-3-[[(4S)-3,3-difluoro-4-hydroxy-1-[(3R,4R)-1-[[6-(6-methyl-3-pyridyl)pyrimidin-4-yl}methyl]-3-phenyl-piperidine-4-carbonyl]-4-piperidyl]methyl]-6-(4-fluorophenoxy)pyrimidin-4-one] | 1.83 | 6.48 nM and 5.16 nM
15 | Cc1nc(C2CCC2)sc1C(=O)N1CC[C@@H](C(=O)N2CCC(O)(Cn3cnc(Oc4ccc(F)cc4)c(N)c3=O)CC2)[C@H](c2ccccc2)C1 [Example 165, 5-amino-3-[[1-[(3R,4R)-1-(2-cyclobutyl-4-methyl-thiazole-5-carbonyl)-3-phenyl-piperidine-4-carbonyl]-4-hydroxy-4-piperidyl]methyl]-6-(4-fluorophenoxy)pyrimidin-4-one] | 2.74 | 9.33 nM
16 | Cc1cnc(CN2CC[C@@H](C(=O)N3CC[C@](O)(Cn4cnc(Oc5ccc(Cl)c(F)c5)c(N)c4=O)C(F)(F)C3)[C@H](c3ccccc3)C2)cn1 [Example 148, 5-amino-6-(4-chloro-3-fluoro-phenoxy)-3-[[(4S)-3,3-difluoro-4-hydroxy-1-[(3R,4R)-1-[(5-methylpyrazin-2-yl)methyl]-3-phenyl-piperidine-4-carbonyl]-4-piperidyl]methyl]pyrimidin-4-one] | 39.9 | 7.5 nM
17 | COc1cc(Cl)cc(Oc2ncn(CC3(O)CCN(C(=O)[C@@H]4CCN(C(=O)c5sc(-c6ccc(C)nc6)nc5C)C[C@H]4c4ccccc4)CC3)c(=O)c2N)c1 [Example 23, 5-amino-6-(3-chloro-5-methoxyphenoxy)-3-((4-hydroxy-1-((3R,4R)-1-[4-methyl-2-(6-methylpyridin-3-yl)-1,3-thiazole-5-carbonyl]-3-phenylpiperidine-4-carbonyl}piperidin-4-yl)methyl]pyrimidin-4(3/I)-one] | 2.77 | 7.46 nM
18 | Nc1c(Oc2ccc(F)cc2)ncn(CC2(O)CCN(C(=O)[C@@H]3CCN(C(=S)Nc4ccccc4)C[C@H]3c3ccccc3)CC2)c1=O [Example 60] | 128 | 75.9 nM
19 | Nc1c(Oc2ccc(F)cc2)ncn(CC2(O)CCN(C(=O)[C@@H]3CCN(C4(c5cccc(F)c5)COC4)C[C@H]3c3ccccc3)CC2)c1=O [Example 153, 5-amino-6-(4-fluorophenoxy)-3-[[1-[(3R,4R)-1-[3-(3-fluorophenyl)oxetan-3-yl]-3-phenyl-piperidine-4-carbonyl]-4-hydroxy-4-piperidyl]methyl]pyrimidin-4-one] | 62 | 28.7 nM
20 | Cc1nc(Cc2ccccc2)sc1C(=O)N1CC[C@@H](C(=O)N2CCC(O)(Cn3cnc(Oc4ccc(F)cc4)c(N)c3=O)CC2)[C@H](c2ccccc2)C1 [Example 61, 5-amine-3-({1-[(3R,4R)-1-(2-benzyl-4-methyl-1,3-thiazole-5-carbonyl)-3-phenylpiperidine-4-carbonyl]-4-hydroxypiperidin-4-yl)methyl)-6-(4-fluorophenoxy)pyrimidin-4(3H)-one] | 17 | 7.9 nM
21 | Nc1c(Oc2ccc(F)cc2)ncn(CC2(O)CCN(C(=O)[C@@H]3CCN(C(=O)c4cccc5cnccc45)C[C@H]3c3ccccc3)CC2)c1=O [Example 102, 5-amino-6-(4-fluorophenoxy)-3-({4-hydroxy-1-[(3R,4R)-1-(isoquinoline-5-carbonyl)-3-phenylpiperidine-4-carbonyl]piperidin-4-yl}methyl)pyrimidin-4(3H)-one] | 9.31 | 4.1 nM
